Results: patent US20090143478A1, “Milled Submicron Organic Biocides With Narrow Particle Size Distribution, and Uses Thereof” (PhibroWood, LLC, priority 2004, published 2009)
Where two headings read alike, the source gives them in different places.

Key:
[1] = at 170 C; cited from earlier work
[2] = Wet milling chlorothalonil with 0.5-0.6 mm cerium-doped zirconium oxide beads, particle size by Sedigraph; type: physicochemical
Method: (§1) The laboratory-sized vertical mill was provided by C B Mills, model# L-3-J. The mill has a 2 liter capacity and is jacketed for cooling. Unless otherwise specified, ambient water was cycled through the mill cooling jacket during operation. The internal dimensions are 3.9″ diameter by 9.1″ height. The mill uses a standard 3×3″ disk agitator (mild steel) on a stainless steel shaft, and it operates at 2,620 rpm.
(§2) The media used in this Example was 0.4-0.5 mm zirconium silicate beads supplied by C B Mills. All particle size determinations were made with a Sedigraph™ 5100T manufactured by Micromeritics, which uses x-ray detection and bases calculations of size on Stokes' Law.
The same mill and conditions were used in this experiment as in experiment 1. However, the grinding media was 0.5-0.6 mm cerium-doped zirconium oxide beads obtained from CB Mills. The density of the cerium doped zirconium oxide is ˜6.0 g/cm^3. […] The total batch weight was about 600 g.

[3] = cited from earlier work
[4] = type: physicochemical; conditions: 0.4-0.5 mm zirconium silicate
Method: as §1, §2
The total batch weight was about 600 g.

[5] = Milling Time 0 Mins., 0.5-0.6 mm cerium-doped zirconium oxide
[6] = Milling Time 90 Mins., 0.5-0.6 mm cerium-doped zirconium oxide
[7] = Milling Time 240 Mins., 0.5-0.6 mm cerium-doped zirconium oxide
[8] = obtainable in 6 hours, 0.5 mm zirconia milling media
[9] = 0.1 cm zirconia, 10 minutes, US 2004/0063847, 2003/0040569

N#Cc1c(Cl)c(Cl)c(Cl)c(C#N)c1Cl [chlorothalonil, 2,4,5,6-tetrachloro-1,3-dicyanobenzene]
volatility [1]: 9.2 mmHg
Volume % With Diameter Greater Than 1 μm [2, 5]: 92 Volume %
Volume % With Diameter Greater Than 2 μm [2, 5]: 77 Volume %
Volume % With Diameter Greater Than 5 μm [2, 5]: 30 Volume %
Volume % With Diameter Greater Than 10 μm [2, 5]: 8 Volume %
d50 [2, 5]: 3.44 μm
Volume % With Diameter Greater Than 0.4 μm [2, 6]: 22 Volume %
Volume % With Diameter Greater Than 1 μm [2, 6]: 3 Volume %
Volume % With Diameter Greater Than 2 μm [2, 6]: 3 Volume %
Volume % With Diameter Greater Than 5 μm [2, 6]: 3 Volume %
Volume % With Diameter Greater Than 10 μm [2, 6]: 3 Volume %
Volume % With Diameter Greater Than 0.2 μm [2, 7]: 51 Volume %
Volume % With Diameter Greater Than 0.4 μm [2, 7]: 3 Volume %
Volume % With Diameter Greater Than 1 μm [2, 7]: 3 Volume %
Volume % With Diameter Greater Than 2 μm [2, 7]: 2 Volume %
Volume % With Diameter Greater Than 5 μm [2, 7]: 1 Volume %
Volume % With Diameter Greater Than 10 μm [2, 7]: 0 Volume %
d50 [2, 7]: 0.21 μm
d95 within a factor of the d50 ([2]; milled chlorothalonil of the example): ≤ 2
d95 ([2]; obtainable in 90 minutes, 0.5 mm zirconia milling media): less than 1 micron
d50 [2, 8]: less than 0.3 microns
d95 [2, 8]: less than 0.4 microns
increase in number of particles per unit of mass over the standard products, factor ([2]; product obtained after 90 minutes of milling (first statement)): more than 30
increase in number of particles per unit of mass over the standard products, factor ([2]; product obtained after 90 minutes of milling (second statement)): more than 1000
size below which 90% of the number of particles lie ([3]; 0.1 cm zirconium beads, 3000 rpm, 10 minutes, US 2004/0024099): below 0.5 microns
mean / average particle diameter after milling with 2 mm glass beads ([3]; U.S. Pat. No. 5,360,783): 2.3 microns
average particle size of the product ([3]; U.S. Pat. No. 5,667,795, 40% chlorothalonil, 5.6% zinc oxide, wet mill): 3 microns
Volume % With Diameter Greater Than 2 μm ([4]; Milling Time 0 Mins.): 95 Volume %
Volume % With Diameter Greater Than 5 μm ([4]; Milling Time 0 Mins.): 48 Volume %
Volume % With Diameter Greater Than 10 μm ([4]; Milling Time 0 Mins.): 10 Volume %
d50 ([4]; Milling Time 0 Mins.): 4.9 μm
Volume % With Diameter Greater Than 1 μm ([4]; Milling Time 30 Mins.): 68 Volume %
Volume % With Diameter Greater Than 2 μm ([4]; Milling Time 30 Mins.): 21 Volume %
Volume % With Diameter Greater Than 5 μm ([4]; Milling Time 30 Mins.): 4 Volume %
Volume % With Diameter Greater Than 10 μm ([4]; Milling Time 30 Mins.): 0 Volume %
d50 ([4]; Milling Time 30 Mins.): 1.3 μm
Volume % With Diameter Greater Than 1 μm ([4]; Milling Time 60 Mins.): 50 Volume %
Volume % With Diameter Greater Than 2 μm ([4]; Milling Time 60 Mins.): 11 Volume %
Volume % With Diameter Greater Than 5 μm ([4]; Milling Time 60 Mins.): 2 Volume %
Volume % With Diameter Greater Than 10 μm ([4]; Milling Time 60 Mins.): 4 Volume %
d50 ([4]; Milling Time 60 Mins.): 1.0 μm
Volume % With Diameter Greater Than 1 μm ([4]; Milling Time 90 Mins.): 94 Volume %
Volume % With Diameter Greater Than 2 μm ([4]; Milling Time 90 Mins.): 22 Volume %
Volume % With Diameter Greater Than 5 μm ([4]; Milling Time 90 Mins.): 23 Volume %
Volume % With Diameter Greater Than 10 μm ([4]; Milling Time 90 Mins.): 18 Volume %
d50 ([4]; Milling Time 90 Mins.): 1.4 μm
Volume % With Diameter Greater Than 2 μm ([4]; Milling Time 120 Mins.): 4 Volume %
Volume % With Diameter Greater Than 5 μm ([4]; Milling Time 120 Mins.): 0 Volume %
Volume % With Diameter Greater Than 10 μm ([4]; Milling Time 120 Mins.): 2 Volume %
d50 ([4]; Milling Time 120 Mins.): 1.03 μm
Volume % With Diameter Greater Than 1 μm ([4]; Milling Time 150 Mins.): 58 Volume %
Volume % With Diameter Greater Than 2 μm ([4]; Milling Time 150 Mins.): 6 Volume %
Volume % With Diameter Greater Than 5 μm ([4]; Milling Time 150 Mins.): 2 Volume %
Volume % With Diameter Greater Than 10 μm ([4]; Milling Time 150 Mins.): 0 Volume %
d50 ([4]; Milling Time 150 Mins.): 1.12 μm
Volume % With Diameter Greater Than 1 μm ([4]; Milling Time 180 Mins.): 53 Volume %
Volume % With Diameter Greater Than 2 μm ([4]; Milling Time 180 Mins.): 7 Volume %
Volume % With Diameter Greater Than 5 μm ([4]; Milling Time 180 Mins.): 2 Volume %
Volume % With Diameter Greater Than 10 μm ([4]; Milling Time 180 Mins.): 2 Volume %
d50 ([4]; Milling Time 180 Mins.): 1.07 μm
Volume % With Diameter Greater Than 1 μm ([4]; Milling Time 270 Mins.): 54 Volume %
Volume % With Diameter Greater Than 2 μm ([4]; Milling Time 270 Mins.): 8 Volume %
Volume % With Diameter Greater Than 5 μm ([4]; Milling Time 270 Mins.): 0 Volume %
Volume % With Diameter Greater Than 10 μm ([4]; Milling Time 270 Mins.): 2 Volume %
d50 ([4]; Milling Time 270 Mins.): 1.09 μm
Volume % With Diameter Greater Than 1 μm ([4]; Milling Time 450 Mins.): 56 Volume %
Volume % With Diameter Greater Than 2 μm ([4]; Milling Time 450 Mins.): 21 Volume %
Volume % With Diameter Greater Than 5 μm ([4]; Milling Time 450 Mins.): 8 Volume %
Volume % With Diameter Greater Than 10 μm ([4]; Milling Time 450 Mins.): 12 Volume %
d50 ([4]; Milling Time 450 Mins.): 1.15 μm

CC1OC(C)OC(C)OC(C)O1 (stereo not drawn) [metaldehyde]
diameter below which 90% of the particles lie [3, 9]: less than 2.5 microns
mean volume diameter [3, 9]: less than 1.5 microns
